Experiments:
Type in all cases: cell-based
MDA-MB-231 (ER−) = test: Growth inhibition assay (MTT, 8 days) in MDA-MB-231 breast cancer cells
Protocol: (§1) Compounds of the invention were tested for their ability to inhibit growth in two breast cancer cell lines, MCF-7 (ER+) and MDA-MB-231 (ER−).
(§2) The growth inhibition assays were conducted using routine methods. Briefly, the cells were seeded in 24-well plates at a density of 2000 cells per well in 200 μL of […] growth medium. To each well was added 10 μL of DMSO containing the dissolved test compound; final DMSO concentration in each well was not more than 0.5%. Each test compound was assayed at concentrations of 0.4, 2, 10, and 50 μM. The plates were incubated for eight days, with the media and test solutions replaced every third day. On Day 8, the viable cells were measured by the MTT assay, as described in Mosmann et al. (1983), “Rapid Colorimetric Assay for Cellular Growth and Survival: Application to Proliferation and Cytotoxicity,” J. Immunol. Method. 65:55–63. The optical density at 575 nm of each test well was measured and compared to that for control wells, and the data used to calculate the percentage of growth inhibition at different concentrations. The IC50 value (the concentration of growth inhibitor that results in 50% growth inhibition of the cells in culture relative to control cells not exposed to any growth inhibitor) was determined by plotting dose-response curves.
(§3) The calculated IC50 values are set forth in Table 1, with the results representing the average of at least two experiments conducted for each compound at each of the four concentrations.

MCF-7 (ER+) = test: Growth inhibition assay (MTT, 8 days) in MCF-7 breast cancer cells
Protocol: as §1, §2, §3

[1] = tested on: human lung tumor cells (A427); test: Concurrent assay for cell survival; conditions: for surviving cells: highest concentration tested (25 μM)
Protocol: (§4) An anchorage-independent growth inhibition assay was performed as described in Korytynski, et al. (1996) “The development of an anchorage-independence assay using human lung tumor cells to screen potential chemopreventive agents,” Anticancer Res. 16, 1091–1094; and Sharma, et al. (1997) “The anchorage-independent assay as a screening tool to identify potential chemopreventive agents,” Methods Cell Sci. 19, 9–12. The assay measures the inhibition of colony formation of human lung tumor cells (A427) cells grown in soft agar. In this assay, A427 cells were grown in the presence of the test agent, SR 13196, EGCG or 13-cis-RA Control samples were tested using an equivalent volume of DMSO alone. A concurrent assay for cell survival was also performed.

[2] = tested on: human lung tumor cells (A427); test: Anchorage-independent growth inhibition assay (colony formation in soft agar)
Protocol: as §4

[3] = Homo sapiens, MDA-MB-231, Table 2, procedures repeated with additional compounds
[4] = Homo sapiens, MCF7, Table 2, procedures repeated with additional compounds
[5] = Table 1, MTT on Day 8, average of at least two experiments
[6] = Table 2, procedures repeated with additional compounds

IC50 (MDA-MB-231 (ER−); [3]) | IC50 (MCF-7 (ER+); [4]) | Molecule | Surviving Fraction ([1]; 1.56 μM) | Surviving Fraction ([1]; 3.12 μM) | Surviving Fraction ([1]; 6.25 μM) | Surviving Fraction ([1]; 12.5 μM) | Surviving Fraction ([1]; 25 μM) | surviving cells [1] | Observed Colonies ([2]; 1.56 μM) | Observed Colonies ([2]; 3.12 μM) | Observed Colonies ([2]; 6.25 μM) | Observed Colonies ([2]; 12.5 μM) | Observed Colonies ([2]; 25 μM) | other results
20.1 µM | 16.2 µM | Cc1cc(C)c2c(c1)O[C@H](c1cc(O)c(O)c(O)c1)[C@H](OC(=O)c1cc(C)c(O)c(C)c1)C2 [SR 13913] | – | – | – | – | – | – | – | – | – | – | – | –
55.4 µM | 124 µM | COc1cc([C@H]2Oc3cc(O)cc(O)c3C[C@H]2OC(=O)c2cc(C)c(O)c(C)c2)cc(OC)c1OC [SR 13197] | – | – | – | – | – | – | – | – | – | – | – | –
47.9 µM | 58.1 µM | COc1cc(OC)c2c(c1)OC(c1cc(O)c(O)c(O)c1)[C@H](OC(=O)c1cc(O)c(O)c(O)c1)C2 (stereo partly drawn) [SR 13198, trans-5,7-DIMETHOXY-2-(3,4,5-TRIHYDROXY-PHENYL)-3,4-DIHYDRO-2H-CHROMAN-3-YL, 3,4,5-TRIHYDROXY-BENZOIC ACID ESTER] | – | – | – | – | – | – | – | – | – | – | – | –

More lines, now with the values behind:

Molecule | IC50 (MDA-MB-231 (ER−); [3]) | IC50 (MCF-7 (ER+); [4]) | Surviving Fraction ([1]; 1.56 μM) | Surviving Fraction ([1]; 3.12 μM) | Surviving Fraction ([1]; 6.25 μM) | Surviving Fraction ([1]; 12.5 μM) | Surviving Fraction ([1]; 25 μM) | surviving cells [1] | Observed Colonies ([2]; 1.56 μM) | Observed Colonies ([2]; 3.12 μM) | Observed Colonies ([2]; 6.25 μM) | Observed Colonies ([2]; 12.5 μM) | Observed Colonies ([2]; 25 μM) | other results
COc1cc([C@H]2Oc3cc(O)cc(O)c3C[C@H]2OC(=O)c2cc(C)c(O)c(C)c2)cc(OC)c1OC (relative stereo) [SR 13196] | – | – | 0.71 | 0.41 | 0.17 | 0.12 | 0.11 | 11% | 268 | 108 | 38 | 28 | 8 | IC50 (MDA-MB-231 (ER−); Homo sapiens, MDA-MB-231, 192 h, Table 1, MTT on Day 8, average of at least two experiments): 12.7 µM; IC50 (MCF-7 (ER+); Homo sapiens, MCF7, 192 h, Table 1, MTT on Day 8, average of at least two experiments): 11.1 µM
Cc1cc(C)c2c(c1)O[C@H](c1cc(O)c(O)c(O)c1)[C@H](OC(=O)c1cc(O)c(O)c(O)c1)C2 [SR 13912] | 62.1 µM | 39.6 µM | – | – | – | – | – | – | – | – | – | – | – | –
O=C(O[C@@H]1Cc2c(O)cc(O)cc2O[C@@H]1c1cc(O)c(O)c(O)c1)c1cc(O)c(O)c(O)c1 [EGCG, (−)-epigallocatechin-3-gallate] | – | – | 0.99 | 0.98 | 0.97 | 0.85 | 0.39 | 39% | 398 | 310 | 282 | 139 | 97 | IC50 (MDA-MB-231 (ER−); [5]): 11.9 µM; IC50 (MDA-MB-231 (ER−); [6]): 5.76 µM; IC50 (MCF-7 (ER+); [5]): 8.22 µM; IC50 (MCF-7 (ER+); [6]): 16.8 µM; % Inhibition (colony formation) ([2]; 1.56 μM): 0%; % Inhibition (colony formation) ([2]; 3.12 μM): 19%; % Inhibition (colony formation) ([2]; 6.25 μM): 25%; % Inhibition (colony formation) ([2]; 12.5 μM): 40%; % Inhibition (colony formation) ([2]; 25 μM): 50%
CC1=C(/C=C/C(C)=C/C=C/C(C)=C\C(=O)O)C(C)(C)CCC1 [13-cis-RA] | – | – | 0.85 | 0.82 | 0.83 | 0.74 | 0.68 | 68% | 310 | 269 | 206 | 179 | 142 | % Inhibition (colony formation) ([2]; 1.56 μM): 8%; % Inhibition (colony formation) ([2]; 3.12 μM): 16%; % Inhibition (colony formation) ([2]; 6.25 μM): 28%; % Inhibition (colony formation) ([2]; 12.5 μM): 35%; % Inhibition (colony formation) ([2]; 25 μM): 43%
trans-5,7-DIMETHYL-2-(3,4,5-TRIHYDROXY-PHENYL)-3,4-DIHYDRO-2H-CHROMAN-3-YL, 3,4,5,-TRIHYDROXY-BENZOIC ACID ESTER [SR 13911] | – | – | – | – | – | – | – | – | – | – | – | – | – | IC50 (MDA-MB-231 (ER−); [6]): 42 µM; IC50 (MCF-7 (ER+); [6]): 23.5 µM
Oc1cc(O)c2c(c1)O[C@H](c1cc(O)c(O)c(O)c1)[C@H](O)C2 [EGC (2,3-cis), (−)-epigallocatechin] | – | – | – | – | – | – | – | – | – | – | – | – | – | IC50 (MDA-MB-231 (ER−); [5]): 27.3 µM; IC50 (MCF-7 (ER+); [5]): 29.8 µM

Source: patent US7122573B2, “Analogs of green tea polyphenols as chemotherapeutic and chemopreventive agents” (SRI International, priority 2002, dated 2006)
